Measurements taken from US10301288B2, “Kinase inhibitors” (Topivert Pharma Limited, priority 2013, dated 2019).
pIC50: −log10 of the molar value.

Assays:
p38 MAPKα = p38 MAPKα (Homo sapiens (Human), UniProt Q16539); experiment: p38 MAPKα enzyme inhibition (FRET, Method 2); format: biochemical
Method: (§1) The enzyme inhibitory activities of compounds disclosed herein are determined by FRET using synthetic peptides labelled with both donor and acceptor fluorophores (Z-LYTE, Invitrogen Ltd., Paisley, UK).
The inhibitory activities of test compounds against the p38 MAPKα isoform (MAPK14: Invitrogen), are evaluated indirectly by determining the level of activation/phosphorylation of the down-stream molecule, MAPKAP-K2. The p38 MAPKα protein (80 ng/mL, 2.5 μL) is mixed with the test compound (2.5 μL of either 4 μg/mL, 0.4 μg/mL, 0.04 μg/mL or 0.004 μg/mL) for 2 hr at RT. […] The mixture is incubated for 1 hr at RT. Development reagent (protease, 5 μL) is added for 1 hr prior to detection in a fluorescence microplate reader (Varioskan® Flash, ThermoFisher Scientific).
(§2) In all cases, the site-specific protease cleaves non-phosphorylated peptide only and eliminates the FRET signal. Phosphorylation levels of each reaction are calculated using the ratio of coumarin emission (donor) over fluorescein emission (acceptor), for which high ratios indicate high phosphorylation and low ratios indicate low phosphorylation levels.

c-Src = c-Src (Homo sapiens (Human), UniProt P12931); experiment: c-Src enzyme inhibition (FRET); format: biochemical
Method: as §1
(§3) The inhibitory activities of compounds of the invention against c-Src and Syk enzymes (Invitrogen), are evaluated in a similar fashion to that described hereinabove. The relevant enzyme (3000 ng/mL or 2000 ng/mL respectively, 2.5 μL) is incubated with the test compound (either 4 μg/mL, 0.4 μg/mL, 0.04 μg/mL, or 0.004 μg/mL, 2.5 μL each) for 2 hr at RT. The FRET peptides (8 μM. 2.5 μL), and appropriate ATP solutions (2.5 μL, 800 μM for c-Src, and 60 μM ATP for Syk) are then added to the enzymes/compound mixtures and incubated for 1 hr. Development reagent (protease, 5 μL) is added for 1 hr prior to detection in a fluorescence microplate reader (Varioskan® Flash, ThermoFisher Scientific).
as §2

Syk = Syk (Homo sapiens (Human), UniProt P43405); experiment: Syk enzyme inhibition (FRET); format: biochemical
Method: as §1, §3, §2

GSK3α = GSK3α (Homo sapiens (Human), UniProt P49840); experiment: GSK 3α enzyme inhibition (FRET, Method 2); format: biochemical
Method: as §1
The inhibitory activities of compounds of the invention against the GSK 3α enzyme isoform (Invitrogen), are evaluated by determining the level of activation/phosphorylation of the target peptide. The GSK3-α protein (500 ng/mL, 2.5 μL) is mixed with the test compound (2.5 μL at either 4 μg/mL, 0.4 μg/mL, 0.04 μg/mL, or 0.004 μg/mL) for 2 hr at RT. The FRET peptide (8 μM, 2.5 μL), which is a phosphorylation target for GSK3α, and ATP (40 μM, 2.5 μL) are then added to the enzyme/compound mixture and the resulting mixture incubated for 1 hr. Development reagent (protease, 5 μL) is added for 1 hr prior to detection in a fluorescence microplate reader (Varioskan® Flash, ThermoFisher Scientific).
as §2

PBMCs [1] = experiment: (b) LPS-induced TNFα/IL-8 release in PBMC cells; format: cell-based; details: Homo sapiens, read-out: IC50 for Inhibition of Cytokine Release, IL-8
Method: Peripheral blood mononuclear cells (PBMCs) from healthy subjects are separated from whole blood using a density gradient (Lymphoprep, Axis-Shield Healthcare). The PBMCs are seeded in 96 well plates and treated with compounds at the desired concentration for 2 hours before addition of 1 ng/ml LPS (Escherichia Coli 0111:B4 from Sigma Aldrich) for 24 hours under normal tissue culture conditions (37° C., 5% CO2). The supernatant is harvested for determination of IL-8 and TNFα concentrations by sandwich ELISA (Duo-set, R&D systems) and read on the fluorescence microplate reader (Varioskan® Flash, ThermoFisher Scientific).

PBMCs [2] = experiment: (c) IL-2 and IFN gamma release in CD3/CD28 stimulated PBMC cells; format: cell-based; details: Homo sapiens
Method: PBMCs from healthy subjects are separated from whole blood using a density gradient (Lymphoprep, Axis-Shield Healthcare). Cells are added to a 96 well plate pre-coated with a mixture of CD3/CD28 monoclonal antibodies (0.3 ug/ml eBioscience and 3 ug/ml BD Pharmingen respectively). Compound at the desired concentration is then added to the wells and the plate left for 3 days under normal tissue culture conditions. […] The IC50 is determined from the dose response curve.

HT29 cells = experiment: (d) IL-1β-induced IL-8 release in HT29 cells; format: cell-based; details: Homo sapiens, HT-29, read-out: IC50 for Inhibition of Cytokine Release, IL-8
Method: HT29 cells, a human colon adenocarcinoma cell line, are plated in a 96 well plate (24 hrs) and pre-treated with compounds at the desired concentration for 2 hours before addition of 5 ng/ml of IL-1β (Abeam) for 24 hours. Supernatants are harvested for IL-8 quantification by Sandwich ELISA (Duo-set, R&D System). The IC50 is determined from the dose response curve.

PBMCs [3] = experiment: (i) Cell mitosis assay in PBMCs; format: cell-based; details: Homo sapiens, PBMC, 5 μg/mL
Method: PBMCs from healthy subjects are separated from whole blood (Quintiles, London, UK) using a density gradient (Histopaque®-1077, Sigma-Aldrich, Poole, UK). The PBMCs (3 million cells per sample) are subsequently treated with 2% PHA (Sigma-Aldrich, Poole, UK) for 48 hr, followed by a 20 hr exposure to varying concentrations of test compounds. At 2 hr before collection, PBMCs are treated with demecolcine (0.1 μg/mL; Invitrogen, Paisley, UK) to arrest cells in metaphase. […] Fluorescence is observed using an ATTUNE flow cytometer (Invitrogen, Paisley, UK), gating for lymphocytes.

β-catenin = experiment: (m) Accumulation of β catenin in d-U937 cells; format: cell-based, human; details: Reference Compound at 1 μg/mL defined as 100%
Method: U937 cells, a human monocytic cell line, are differentiated into macrophage-type cells by incubation with PMA; (100 ng/mL) for between 48 to 72 hr. The cells are then incubated with either final concentrations of test compound or vehicle for 18 hr. The induction of β-catenin by the test compounds is stopped by replacing the media with 4% formaldehyde solution. Endogenous peroxide activity is neutralised by incubating with quenching buffer (100 μL, 0.1% sodium azide, 1% H2O2 in PBS with 0.05% Tween-20) for 20 min. The cells are washed with washing buffer (200 μL; PBS containing 0.05% Tween-20) and incubated with blocking solution (200 μL; 5% milk in PBS) for 1 hr, re-washed with washing buffer (200 μL) and then incubated overnight with anti-β-catenin antibody solution (50 μL) in 1% BSA/PBS (BD, Oxford, UK).
After washing with washing buffer (3×200 μL; PBS containing 0.05% Tween-20), cells are incubated with an HRP-conjugated secondary antibody solution (100 μL) in 1% BSA/PBS (Dako, Cambridge, UK) and the resultant signal is determined colourimetrically (OD: 450 nm with a reference wavelength of 655 nm) using TMB substrate (50 μL; R&D Systems, Abingdon, UK). This reaction is stopped by addition of 1N H2SO4 solution (50 μL). Cells are then washed with washing buffer and 2% crystal violet solution (50 μL) is applied for 30 min. After washing with washing buffer (3×200 μL), 1% SDS (100 μL) is added to each well and the plates are shaken lightly for 1 hr prior to measuring the absorbance at 595 nm (Varioskan® Flash, Thermo-Fisher Scientific).
The measured OD450-655 readings are corrected for cell number by dividing the OD450-655 by the OD595 readings.

[4] = Hydrolytic stability study in DMSO and water (3:1); format: physicochemical; details: 1 mg/mL
Method: General HPLC Procedure • Agilent, Waters X-Select C18, 2.5 μm, 4.6×30 mm column, 4 min method, 5-95% MeCN/water (0.1% formic acid). • Flow rate 2.5 ml/min • Column Oven Temperature 40° C. • Detection 254 nm.
Sample Preparation • A 1.0 mg sample of test compound was dissolved in 750 μL of DMSO. Water (250 μL) was added slowly, ensuring no precipitation occurred.
Recording Stability • A 50 μL aliquot of the test solution was removed and analysed in duplicate by 5 μL HPLC injections. The peak area for the test compound was recorded following manual integration of the corresponding UV trace. • The test solution was heated to 60° C., with stirring, and 50 μL aliquots removed for HPLC analysis at 5 and 24 h timepoints.

[5] = read-out: IC50 for Inhibition of Cytokine Release, IFNγ
[6] = read-out: IC50 for Inhibition of Cytokine Release, IL-2

GSK3α, sequence (P49840 whole entry): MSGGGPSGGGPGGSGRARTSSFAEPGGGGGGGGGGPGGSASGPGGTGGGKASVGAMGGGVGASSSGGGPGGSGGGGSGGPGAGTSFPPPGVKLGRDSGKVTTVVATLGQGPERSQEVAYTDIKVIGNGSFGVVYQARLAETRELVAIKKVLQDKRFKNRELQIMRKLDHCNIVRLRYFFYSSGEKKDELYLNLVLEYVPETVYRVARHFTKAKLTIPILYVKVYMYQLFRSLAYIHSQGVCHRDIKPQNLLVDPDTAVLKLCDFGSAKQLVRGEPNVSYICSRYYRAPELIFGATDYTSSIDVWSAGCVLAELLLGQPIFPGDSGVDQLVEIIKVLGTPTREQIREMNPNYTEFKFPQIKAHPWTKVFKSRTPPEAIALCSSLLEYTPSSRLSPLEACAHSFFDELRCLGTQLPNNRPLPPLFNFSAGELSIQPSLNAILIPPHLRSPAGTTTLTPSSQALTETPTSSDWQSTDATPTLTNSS
c-Src, sequence (P12931 whole entry, looked up): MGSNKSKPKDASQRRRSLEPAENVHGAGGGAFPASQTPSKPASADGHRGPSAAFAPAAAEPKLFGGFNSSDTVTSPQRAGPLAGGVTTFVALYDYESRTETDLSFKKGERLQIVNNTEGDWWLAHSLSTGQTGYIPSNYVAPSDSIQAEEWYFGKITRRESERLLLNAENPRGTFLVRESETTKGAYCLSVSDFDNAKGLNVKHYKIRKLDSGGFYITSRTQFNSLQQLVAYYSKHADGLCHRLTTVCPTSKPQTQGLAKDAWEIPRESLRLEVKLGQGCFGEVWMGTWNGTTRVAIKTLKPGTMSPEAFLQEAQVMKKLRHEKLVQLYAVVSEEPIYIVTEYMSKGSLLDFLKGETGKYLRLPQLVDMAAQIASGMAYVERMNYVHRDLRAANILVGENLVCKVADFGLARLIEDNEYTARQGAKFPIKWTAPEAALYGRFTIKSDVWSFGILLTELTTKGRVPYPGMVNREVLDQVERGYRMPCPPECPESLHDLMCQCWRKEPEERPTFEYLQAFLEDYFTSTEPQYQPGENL
p38 MAPKα, sequence (Q16539 whole entry): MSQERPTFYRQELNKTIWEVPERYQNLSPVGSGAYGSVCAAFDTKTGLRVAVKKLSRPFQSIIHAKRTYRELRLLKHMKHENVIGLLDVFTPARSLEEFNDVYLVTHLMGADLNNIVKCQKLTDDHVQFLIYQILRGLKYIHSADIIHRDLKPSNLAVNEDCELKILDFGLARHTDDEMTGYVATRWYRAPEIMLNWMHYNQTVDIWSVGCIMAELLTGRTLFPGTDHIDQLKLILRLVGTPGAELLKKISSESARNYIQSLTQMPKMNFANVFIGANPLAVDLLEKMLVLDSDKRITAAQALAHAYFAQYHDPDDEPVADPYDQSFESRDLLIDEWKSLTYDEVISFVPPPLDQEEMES

pIC50 (p38 MAPKα)	pIC50 (c-Src)	pIC50 (Syk)	pIC50 (GSK3α)	pIC50 (HT29 cells)	% left ([4]; 0 min)	% left ([4]; 60° C., 300 min)	% left ([4]; 60° C., 1440 min)	SMILES	pIC50 (PBMCs [1])	pIC50 (PBMCs [2]; [5])	pIC50 (PBMCs [2]; [6])	inhibition at 5 µg/mL (PBMCs [3])	% β-catenin induction (β-catenin; 1 μg/mL)	% β-catenin induction (β-catenin; 5 μg/mL)	% β-catenin induction (β-catenin; 10 μg/mL)
6.98	7.70	6.92	5.54	8.49				C#Cc1cc(Nc2nccc(Oc3ccc(NC(=O)Nc4cc(C(C)(C)C)nn4-c4ccc(C)cc4)c4ccccc34)n2)cc(C(=O)NCCOCCOC)c1 [Example 8, 3-((4-((4-(3-(3-(tert-Butyl)-1-(p-tolyl)-1H-pyrazol-5-yl)ureido)naphthalen-1-yl)oxy)pyrimidin-2-yl)amino)-5-ethynyl-N-(2-(2-methoxyethoxy)ethyl)benzamide]	8.80	8.07	7.26	6.1%	6%	3%	2%
					100%	82%	36%	C#Cc1cc(Nc2nccc(Oc3ccc(NC(=O)Nc4cc(C(C)C)nn4-c4ccc(C)cc4)c4ccccc34)n2)cc(C(=O)NCCN2CCOCC2)c1 [Reference Compound A, 3-ethynyl-5-((4-((4-(3-(3-isopropyl-1-(p-tolyl)-1H-pyrazol-5-yl)ureido)naphthalen-1-yl)oxy)pyrimidin-2-yl)amino)-N-(2-morpholinoethyl)benzamide, reference compound]							
7.06	7.74	6.63	5.69	8.80				C#Cc1cc(Nc2nccc(Oc3ccc(NC(=O)Nc4cc(C(C)(C)C)nn4-c4ccc(C)cc4)c4ccccc34)n2)cc(C(=O)NCCOCCOCCOCCOC)c1 [Example 7, 3-((4-((4-(3-(3-(tert-Butyl)-1-(p-tolyl)-1H-pyrazol-5-yl)ureido)naphthalen-1-yl)oxy)pyrimidin-2-yl)amino)-5-ethynyl-N-(2,5,8,11-tetraoxatridecan-13-yl)benzamide]	8.62	8.43	7.04	9.1%	0%	−2%	−5%
7.30	7.72	7.34	5.02	8.28				COCCOCCOCCNC(=O)c1cc(Nc2cc(Oc3ccc(NC(=O)Nc4cc(C(C)(C)C)nn4-c4ccc(C)cc4)c4ccccc34)ccn2)cc(OC)c1 [Example 4, 3-((4-((4-(3-(3-(tert-Butyl)-1-(p-tolyl)-1H-pyrazol-5-yl)ureido)naphthalen-1-yl)oxy)pyridin-2-yl)amino)-5-methoxy-N-(2-(2-(2-methoxyethoxy)ethoxy)ethyl)-benzamide]	8.85	8.62	7.43	38.8%	5%	12%	
